Measured values as given in patent US20240424152A1, “AGENTS, COMPOSITIONS, AND METHODS FOR CANCER DETECTION” (The Johns Hopkins University, priority 2021, published 2024).
Entries after “also recorded” stand apart in the source; their conditions may differ. No end group written: not given here. *: point of attachment. NOTA = O=C(O)CN1CCN(CC(=O)O)CCN(CC(=O)*)CC1

How the values were obtained:
[1] = system: human triple negative breast cancer cell line, MDA-MB-231; assay: Cellular uptake of 18F-labeled peptide with blocking by unlabeled peptide; type: cell-based; conditions: MDA-MB-231 cells, 74 KBq 18F-labeled peptide, 37° C., blocking with 10-fold non-radioactive peptide; FIG. 1
Method: Prepared peptides were first analyzed in vitro using the human triple negative breast cancer cell line, MDA-MB-231. In brief, cells were detached using non-enzymatic buffer and 0.5 million cells per tube will be incubated with 74 KBq (2 μCi) of ^18F-labeled peptide in 100 μL phosphate-buffered saline (PBS) at 37° C. Experiments were done in triplicate and repeated three times to ensure reproducibility. Blocking was carried out using a 10-fold molar equivalence of the corresponding non-radioactive peptide analogue. The integrity of the radiolabeled compounds and their extent of decomposition was analyzed by RP-HPLC.

[2] = system: MDA-MB-231 tumors; assay: In vivo PET imaging in mice xenografted with MDA-MB-231 breast tumors; conditions: NOG mice, MDA-MB-231 xenograft, intravenous, 30 min post tracer injection; FIG. 2
Method: All animal studies were carried out per regulations set forth and approved by the Johns Hopkins Animal Care and Use Committee at the Johns Hopkins Molecular Imaging Service Center. Female, 6-8 weeks old, immunodeficient (NOG) mice were inoculated with MDA-MB-231 (2 million) cells in 100 μL of Hank's balanced salt solution in the top mammary fat pad. Tumors averaging 200-300 mm^3 (typically 14 days after inoculation) were used for in vivo imaging and ex vivo biodistribution studies.
For PET imaging, mice were intravenously injected with 9-10 MBq (240-270 μCi) of the radiolabeled peptide in 200 μL of saline. Whole body PET imaging (2 beds; 15 min per bed) was carried out using a SEDCAL SuperArgus small animal PET/CT scanner 30 min post tracer injection. Following PET image acquisition, a CT scan (512 projections) was obtained on the same system for anatomical co-registration. PET data were reconstructed using the 3-dimensional ordered-subsets expectation maximization (3D-OSEM) algorithm and corrected for dead time and radioactive decay. Final data visualization and image generation was carried out using the Amira (FEI) software. Quantitative in vivo image analysis was done in AMIDE 1.0.5 (SourceForge) using ellipsoid region-of-interest volume integrations. Percentage of injected dose per cubic centimeter of tissue (% ID/cc) was calculated based on an external calibration factor obtained from a known quantity of radioactivity.

| Substance | cellular uptake [1] | accumulation in breast tumors (PET) [2] | tumor uptake on PET compared to Pep61 [2] |
| --- | --- | --- | --- |
| A-D-K(NOTA)-P-D-M-G-E-I-A-S-F-D-K (ADK(NOTA)PDMGEIASFDK; also: 18F label) [Pep61, tested 18F-labeled] | taken up by MDA-MB-231 cells in a specific manner | clear accumulation in breast tumors; also recorded: Accumulation and visualization of both peptides in breast tumors |  |
| A-D-K-P-D-M-G-E-I-A-S-F-D-K(NOTA) (ADKPDMGEIASFDK(NOTA); also: 18F label) [Pep62, tested 18F-labeled] | taken up by MDA-MB-231 cells in a specific manner | clear accumulation in breast tumors; also recorded: Accumulation and visualization of both peptides in breast tumors | higher and more uniform uptake compared to Pep61 |
